Where a name gives a salt, the structure may show the parent alone. Read-outs that look alike come from different tables or passages of the source.
Columns and labels:
[1] = humans, fasted, oral, equimolar doses
[2] = Example 23: Bz-HC.HCl API single dose intranasal human PK study vs HB API; assay type: in vivo, humans; settings: 13.34 mg Bz-HC•HCl API; for AUC(0-t) / AUC(0-inf) / half-life / Cmax: 13.34 mg
Source text: This was a randomized, double blind, single dose, two way crossover, single center study in recreational non-dependent opioid users. Subjects participated in a Screening Phase (Visit 1), Naloxone Challenge Test (Visit 2, Check in), Treatment Phase (Visit 2, inpatient) and Follow up Phase (Visit 3).
A sufficient number of male and female subjects between the ages of 18-55 years were to be screened in order to enroll approximately 30 subjects into the Treatment Phase to ensure 24 completers.

[3] = Example 22: intranasal crushed / oral intact tablets human PK study vs HB/APAP
[4] = Water solubility / feasibility of intranasal or intravenous dosing; settings: water

Structure (SMILES): COc1ccc2c3c1O[C@H]1C(OC(=O)c4ccccc4)=CC[C@H]4[C@@H](C2)N(C)CC[C@]314 [Bz-HC•HCl, benzoate-hydrocodone hydrochloride]
- bioequivalence to Norco (in words) [1]: bioequivalent
- Bz-HC plasma concentrations at 24 hours post-dose (in words) ([2]; all subjects): below the limit of quantification
- Tmax ([2]; both sexes, human, plasma, inhaled or intranasal, read-out: Tmax of Bz-HC, Median (Min-Max)): 0.25 h
- AUC(0-t) ([2]; both sexes, human, plasma, inhaled or intranasal, n = 22, read-out: AUC0-4 h of Bz-HC, Mean (SD)): 3.14 ng·h/mL
- AUC(0-t) ([2]; both sexes, human, plasma, inhaled or intranasal, n = 22, read-out: AUC0-4 h of Bz-HC, Median (Min-Max)): 2.36 ng·h/mL
- AUC(0-t) ([2]; both sexes, human, plasma, inhaled or intranasal, n = 22, read-out: AUC0-6 h of Bz-HC, Mean (SD)): 3.4 ng·h/mL
- AUC(0-t) ([2]; both sexes, human, plasma, inhaled or intranasal, n = 22, read-out: AUC0-6 h of Bz-HC, Median (Min-Max)): 2.56 ng·h/mL
- AUC(0-t) ([2]; both sexes, human, plasma, inhaled or intranasal, n = 22, read-out: AUC0-8 h of Bz-HC, Mean (SD)): 3.51 ng·h/mL
- AUC(0-t) ([2]; both sexes, human, plasma, inhaled or intranasal, n = 22, read-out: AUC0-8 h of Bz-HC, Median (Min-Max)): 2.62 ng·h/mL
- AUC(0-t) ([2]; both sexes, human, plasma, inhaled or intranasal, n = 22, read-out: AUC0-10 h of Bz-HC, Mean (SD)): 3.56 ng·h/mL
- AUC(0-t) ([2]; both sexes, human, plasma, inhaled or intranasal, n = 22, read-out: AUC0-10 h of Bz-HC, Median (Min-Max)): 2.64 ng·h/mL
- AUC(0-t) ([2]; both sexes, human, plasma, inhaled or intranasal, n = 22, read-out: AUC0-12 h of Bz-HC, Mean (SD)): 3.59 ng·h/mL
- AUC(0-t) ([2]; both sexes, human, plasma, inhaled or intranasal, n = 22, read-out: AUC0-12 h of Bz-HC, Median (Min-Max)): 2.64 ng·h/mL
- AUC(0-t) ([2]; both sexes, human, plasma, inhaled or intranasal, n = 22, read-out: AUC0-24 h of Bz-HC, Mean (SD)): 3.61 ng·h/mL
- AUC(0-t) ([2]; both sexes, human, plasma, inhaled or intranasal, n = 22, read-out: AUC0-24 h of Bz-HC, Median (Min-Max)): 2.65 ng·h/mL
- AUC(0-inf) ([2]; both sexes, human, plasma, inhaled or intranasal, n = 22, read-out: AUCinf of Bz-HC, Mean (SD)): 3.62 ng·h/mL
- AUC(0-inf) ([2]; both sexes, human, plasma, inhaled or intranasal, n = 22, read-out: AUCinf of Bz-HC, Median (Min-Max)): 2.65 ng·h/mL
- half-life ([2]; both sexes, human, plasma, inhaled or intranasal, n = 22, read-out: t1/2 of Bz-HC, Mean (SD) (converted)): 1.42 h
- half-life ([2]; both sexes, human, plasma, inhaled or intranasal, n = 22, read-out: t1/2 of Bz-HC, Median (Min-Max) (converted)): 1.3 h
- AUC(0-t) ([2]; both sexes, human, plasma, inhaled or intranasal, n = 23, read-out: AUC0-1.5 h of Bz-HC, Mean (SD)): 2.06 ng·h/mL
- AUC(0-t) ([2]; both sexes, human, plasma, inhaled or intranasal, n = 23, read-out: AUC0-1.5 h of Bz-HC, Median (Min-Max)): 1.68 ng·h/mL
- AUC(0-t) ([2]; both sexes, human, plasma, inhaled or intranasal, n = 23, read-out: AUC0-2 h of Bz-HC, Mean (SD)): 2.39 ng·h/mL
- AUC(0-t) ([2]; both sexes, human, plasma, inhaled or intranasal, n = 23, read-out: AUC0-2 h of Bz-HC, Median (Min-Max)): 1.93 ng·h/mL
- AUC(0-t) ([2]; both sexes, human, plasma, inhaled or intranasal, n = 23, read-out: AUC0-3 h of Bz-HC, Mean (SD)): 2.79 ng·h/mL
- AUC(0-t) ([2]; both sexes, human, plasma, inhaled or intranasal, n = 23, read-out: AUC0-3 h of Bz-HC, Median (Min-Max)): 2.19 ng·h/mL
- AUC(0-t) ([2]; both sexes, human, plasma, inhaled or intranasal, read-out: AUC0-0.0833 h of Bz-HC, Mean (SD)): 0.0153 ng·h/mL
- AUC(0-t) ([2]; both sexes, human, plasma, inhaled or intranasal, read-out: AUC0-0.5 h of Bz-HC, Mean (SD)): 0.7 ng·h/mL
- AUC(0-t) ([2]; both sexes, human, plasma, inhaled or intranasal, read-out: AUC0-0.5 h of Bz-HC, Median (Min-Max)): 0.666 ng·h/mL
- AUC(0-t) ([2]; both sexes, human, plasma, inhaled or intranasal, read-out: AUC0-0.75 h of Bz-HC, Mean (SD)): 1.15 ng·h/mL
- AUC(0-t) ([2]; both sexes, human, plasma, inhaled or intranasal, read-out: AUC0-0.75 h of Bz-HC, Median (Min-Max)): 0.977 ng·h/mL
- AUC(0-t) ([2]; both sexes, human, plasma, inhaled or intranasal, read-out: AUC0-1 h of Bz-HC, Mean (SD)): 1.5 ng·h/mL
- AUC(0-t) ([2]; both sexes, human, plasma, inhaled or intranasal, read-out: AUC0-1 h of Bz-HC, Median (Min-Max)): 1.24 ng·h/mL
- AUC(0-t) ([2]; both sexes, human, plasma, inhaled or intranasal, read-out: AUClast of Bz-HC, Mean (SD)): 3.24 ng·h/mL
- AUC(0-t) ([2]; both sexes, human, plasma, inhaled or intranasal, read-out: AUClast of Bz-HC, Median (Min-Max)): 2.41 ng·h/mL
- Cmax ([2]; both sexes, human, plasma, inhaled or intranasal, read-out: Cmax of Bz-HC, Mean (SD)): 2.41 ng/mL
- Cmax ([2]; both sexes, human, plasma, inhaled or intranasal, read-out: Cmax of Bz-HC, Median (Min-Max)): 2.16 ng/mL
- concentration at […] ([2]; both sexes, human, plasma, other: intranasal, at 0.25 hour post-dose, read-out: highest mean (SD) plasma concentration of Bz-HC): 2.01 ng/mL
- AUC(0-t) ([2]; both, human, plasma, inhaled or intranasal, AUC0-[…] of Bz-HC, Mean (SD), read-out: AUC0-0.25 h of Bz-HC, Mean (SD)): 0.213 ng·h/mL
- AUC(0-t) ([2]; both, human, plasma, inhaled or intranasal, AUC0-[…] of Bz-HC, Median (Min-Max), read-out: AUC0-0.25 h of Bz-HC, Median (Min-Max)): 0.197 ng·h/mL
- half-life ([3]; human, plasma, inhaled or intranasal): 1.11 h
- Tlast of Bz-HC (time of the last quantifiable concentration), median ([3]; intranasal crushed Bz-HC.HCl/APAP 13.34/650 mg): 6.22 h
- water solubility (in words) [4]: much less soluble in water than the hydrocodone bitartrate

From patent publication US10351573B2, “Benzoic acid, benzoic acid derivatives and heteroaryl carboxylic acid conjugates of hydrocodone, prodrugs, methods of making and uses thereof” (KemPharm, Inc., priority 2009, dated 2019)
